Legend:
Type in all cases: in vivo
rice (Oryza sativa) = assay: Test C flooded paddy test: rice; details: scale 0 to 100 (0 no effect, 100 complete control)
Excerpt: Plant species in the flooded paddy test consisted of rice (Oryza sativa), sedge, umbrella (small-flower umbrella sedge, Cyperus difformis), ducksalad (Heteranthera limosa) and barnyardgrass (Echinochloa crus-galli) grown to the 2-leaf stage for testing. At time of treatment, test pots were flooded to 3 cm above the soil surface, treated by application of test compounds directly to the paddy water, and then maintained at that water depth for the duration of the test.
Treated plants and controls were maintained in a greenhouse for 13 to 15 days, after which time all species were compared to controls and visually evaluated. Plant response ratings, summarized in Table C, are based on a scale of 0 to 100 where 0 is no effect and 100 is complete control. A dash (-) response means no test result.

[1] = system: crabgrass, large (large crabgrass, Digitaria sanguinalis); assay: Test A pre-/postemergence: crabgrass, large; details: for Crabgrass, Large plant response rating: Postemergence; for Plant response rating, Crabgrass, Large: Preemergence
In short: (§1)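 Whole-plant greenhouse assay in loam/sand. Preemergence directed soil spray plus simultaneous postemergence spray (one- to two-leaf stage, 2–10 cm). Rated visually ~10 days later, 0 = no effect, 100 = complete control.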

[2] = system: pigweed (Amaranthus retroflexus); assay: Test A pre-/postemergence: pigweed; details: for Pigweed plant response rating: Postemergence; for Plant response rating, Pigweed: Preemergence
In short: as §1

[3] = system: sedge, umbrella (small-flower umbrella sedge, Cyperus difformis); assay: Test C flooded paddy test: sedge, umbrella; details: scale 0 to 100 (0 no effect, 100 complete control)
In short: (§2)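 Plants were grown to the 2-leaf stage, pots flooded to 3 cm above soil, and test compounds applied directly to the paddy water, with that depth held throughout. After 13 to 15 days in a greenhouse, injury was visually rated against controls on a 0 (no effect) to 100 (complete control) scale.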

[4] = system: barnyardgrass (Echinochloa crus-galli); assay: Test C flooded paddy test: barnyardgrass; details: scale 0 to 100 (0 no effect, 100 complete control)
In short: as §2

[5] = system: wheat (Triticum aestivum); assay: Test A pre-/postemergence: wheat; details: for Wheat plant response rating: Postemergence; for Plant response rating, Wheat: Preemergence
In short: as §1

corn (Zea mays) = assay: Test A pre-/postemergence: corn; details: for Corn plant response rating: Postemergence; for Plant response rating, Corn: Preemergence
In short: as §1

[6] = system: ducksalad (Heteranthera limosa); assay: Test C flooded paddy test: ducksalad; details: scale 0 to 100 (0 no effect, 100 complete control)
In short: as §2

[7] = system: velvetleaf (Abutilon theophrasti); assay: Test A pre-/postemergence: velvetleaf; details: for Velvetleaf plant response rating: Postemergence; for Plant response rating, Velvetleaf: Preemergence
In short: as §1

[8] = system: barnyardgrass (Echinochloa crus-galli); assay: Test A pre-/postemergence: barnyardgrass; details: for Barnyardgrass plant response rating: Postemergence; for Plant response rating, Barnyardgrass: Preemergence
In short: as §1

[9] = system: morningglory (Ipomoea spp.); assay: Test A pre-/postemergence: morningglory; details: for Morningglory plant response rating: Postemergence; for Plant response rating, Morningglory: Preemergence
In short: as §1

[10] = system: foxtail, giant (giant foxtail, Setaria faberii); assay: Test A pre-/postemergence: foxtail, giant; details: for Foxtail, Giant plant response rating: Postemergence; for Plant response rating, Foxtail, Giant: Preemergence
In short: as §1

[11] = Flood (flooded paddy test), 62 g ai/ha, visual rating after 13 to 15 days
[12] = Flood (flooded paddy test), 250 g ai/ha, visual rating after 13 to 15 days
[13] = 125 g ai/ha, 0 to 100 scale, 0 is no effect, 100 is complete control
[14] = 500 g ai/ha, visual rating on 0 to 100 scale (0 no effect, 100 complete control), approximately ten days
[15] = 125 g ai/ha, 0 to 100 scale (0 no effect, 100 complete control)
[16] = 500 g ai/ha, 0 to 100 scale, 0 is no effect, 100 is complete control
[17] = Flood (flooded paddy test), 125 g ai/ha, visual rating after 13 to 15 days

## CCc1nn(-c2ccc(F)cc2)nc1Cn1ccc(C(F)(F)C(F)(F)F)n1 [Compound 10]
Rice (Oryza sativa); [11]
  Plant response rating, Rice: 0
Rice (Oryza sativa); [12]
  Plant response rating, Rice: 0
[1]; [13]
  Crabgrass, Large plant response rating: 40
[1]; [14]
  Crabgrass, Large plant response rating: 60
[1]; [15]
  Plant response rating, Crabgrass, Large: 40
[1]; [16]
  Plant response rating, Crabgrass, Large: 90
[2]; [13]
  Pigweed plant response rating: 70
[2]; [14]
  Pigweed plant response rating: 100
[2]; [15]
  Plant response rating, Pigweed: 60
[2]; [16]
  Plant response rating, Pigweed: 80
[3]; [11]
  Plant response rating, Sedge, Umbrella: 0
[3]; [12]
  Plant response rating, Sedge, Umbrella: 0
[4]; [11]
  Plant response rating, Barnyardgrass: 0
[4]; [12]
  Plant response rating, Barnyardgrass: 0
[5]; [13]
  Wheat plant response rating: 0
[5]; [14]
  Wheat plant response rating: 10
[5]; [15]
  Plant response rating, Wheat: 0
[5]; [16]
  Plant response rating, Wheat: 0
Corn (Zea mays); [13]
  Corn plant response rating: 20
Corn (Zea mays); [14]
  Corn plant response rating: 20
Corn (Zea mays); [15]
  Plant response rating, Corn: 0
Corn (Zea mays); [16]
  Plant response rating, Corn: 0
[6]; [11]
  Plant response rating, Ducksalad: 0
[6]; [12]
  Plant response rating, Ducksalad: 0
[7]; [13]
  Velvetleaf plant response rating: 40
[7]; [14]
  Velvetleaf plant response rating: 50
[7]; [15]
  Plant response rating, Velvetleaf: 0
[7]; [16]
  Plant response rating, Velvetleaf: 20
[8]; [13]
  Barnyardgrass plant response rating: 20
[8]; [14]
  Barnyardgrass plant response rating: 50
[8]; [15]
  Plant response rating, Barnyardgrass: 0
[8]; [16]
  Plant response rating, Barnyardgrass: 10
[9]; [13]
  Morningglory plant response rating: 100
[9]; [14]
  Morningglory plant response rating: 100
[9]; [15]
  Plant response rating, Morningglory: 0
[9]; [16]
  Plant response rating, Morningglory: 10
[10]; [13]
  Foxtail, Giant plant response rating: 20
[10]; [14]
  Foxtail, Giant plant response rating: 50
[10]; [15]
  Plant response rating, Foxtail, Giant: 20
[10]; [16]
  Plant response rating, Foxtail, Giant: 80

## COc1nn(-c2ccc(C(F)(F)F)cc2)nc1C(F)c1ccnc(C(F)(F)F)c1 (stereo not shown) [Compound 80]
Rice (Oryza sativa); [17]
  Plant response rating, Rice: 0
Rice (Oryza sativa); [12]
  Plant response rating, Rice: 0
Rice (Oryza sativa); Flood, 31 g ai/ha
  Plant response rating, Rice: 0
Rice (Oryza sativa); Flood, 62 g ai/ha
  Plant response rating, Rice: 0
[1]; [13]
  Crabgrass, Large plant response rating: 40
[1]; [14]
  Crabgrass, Large plant response rating: 80
[1]; [15]
  Plant response rating, Crabgrass, Large: 90
[1]; [16]
  Plant response rating, Crabgrass, Large: 100
[2]; [13]
  Pigweed plant response rating: 100
[2]; [14]
  Pigweed plant response rating: 100
[2]; [15]
  Plant response rating, Pigweed: 100
[2]; [16]
  Plant response rating, Pigweed: 100
[3]; [17]
  Plant response rating, Sedge, Umbrella: 0
[3]; [12]
  Plant response rating, Sedge, Umbrella: 70
[3]; Flood, 31 g ai/ha
  Plant response rating, Sedge, Umbrella: 0
[3]; Flood, 62 g ai/ha
  Plant response rating, Sedge, Umbrella: 0
[4]; [17]
  Plant response rating, Barnyardgrass: 0
[4]; [12]
  Plant response rating, Barnyardgrass: 20
[4]; Flood, 31 g ai/ha
  Plant response rating, Barnyardgrass: 0
[4]; Flood, 62 g ai/ha
  Plant response rating, Barnyardgrass: 0
[5]; [13]
  Wheat plant response rating: 20
[5]; [14]
  Wheat plant response rating: 40
[5]; [15]
  Plant response rating, Wheat: 0
[5]; [16]
  Plant response rating, Wheat: 40
Corn (Zea mays); [13]
  Corn plant response rating: 20
Corn (Zea mays); [14]
  Corn plant response rating: 20
Corn (Zea mays); [15]
  Plant response rating, Corn: 0
Corn (Zea mays); [16]
  Plant response rating, Corn: 10
[6]; [17]
  Plant response rating, Ducksalad: 0
[6]; [12]
  Plant response rating, Ducksalad: 0
[6]; Flood, 31 g ai/ha
  Plant response rating, Ducksalad: 0
[6]; Flood, 62 g ai/ha
  Plant response rating, Ducksalad: 0
[7]; [13]
  Velvetleaf plant response rating: 80
[7]; [14]
  Velvetleaf plant response rating: 100
[7]; [15]
  Plant response rating, Velvetleaf: 30
[7]; [16]
  Plant response rating, Velvetleaf: 70
[8]; [13]
  Barnyardgrass plant response rating: 30
[8]; [14]
  Barnyardgrass plant response rating: 70
[8]; [15]
  Plant response rating, Barnyardgrass: 20
[8]; [16]
  Plant response rating, Barnyardgrass: 70
[9]; [13]
  Morningglory plant response rating: 40
[9]; [14]
  Morningglory plant response rating: 90
[9]; [15]
  Plant response rating, Morningglory: 0
[9]; [16]
  Plant response rating, Morningglory: 60
[10]; [13]
  Foxtail, Giant plant response rating: 30
[10]; [14]
  Foxtail, Giant plant response rating: 80
[10]; [15]
  Plant response rating, Foxtail, Giant: 90
[10]; [16]
  Plant response rating, Foxtail, Giant: 100
